Earlier results in patent US20260183298A1, “VIRAL PROPHYLAXIS TREATMENT METHODS AND PRE-EXPOSURE PROPHYLAXIS KITS” (priority 2022, published 2026).

Experiments:
[1] = in vivo
EHV = conditions: about 75% of the horses infected with EHV; all horses treated with valacyclovir
[2] = test system: HSV-1, HSV-2, HSV-8 (Kaposi's Sarcoma Virus), Vaccinia and Cowpox viruses

Compound	time to clear through the kidneys [1]	Renal clearance (following a single 1 g dose) [mL/min]	Mean Cmax (in vivo) [ng/mL]	bioavailability (overall) [%]	progression to severe neurological disease (EHV)	metabolism by cytochrome p450 (cytochrome p450)	antiviral activity [2]	potency relative to reference antivirals ([2]; than the antiviral drugs acyclovir, ganciclovir and cidofovir)
CC(C)[C@H](N)C(=O)OCCOCn1cnc2c(=O)[nH]c(N)nc21 [Valacyclovir, valacyclovir]	less than 24 hours	255	830 to 5650	54.5	none progressed to severe neurological disease	not metabolized by cytochrome p450	–	–
Cc1cn([C@H]2C[C@H](O)[C@]3(CO)C[C@H]23)c(=O)[nH]c1=O [N-MCT, N-methanocarbathymidine]	–	–	–	–	–	–	inhibits	equally or more potent
CC(=O)OCC(CCn1cnc2cnc(N)nc21)COC(C)=O [Famciclovir, famciclovir]	less than 24 hours	–	–	–	–	–	–	–
